{"source": "patent US20260200978A1", "about": "“PEPTIDE INHIBITORS OF BETA-LACTAMASE” (priority 2022, published 2026)", "key": {"TEM-1 β-lactamase": {"target": "TEM-1 β-lactamase (Escherichia coli, UniProt P62593)", "sequence (P62593 24-286 limits assumed)": "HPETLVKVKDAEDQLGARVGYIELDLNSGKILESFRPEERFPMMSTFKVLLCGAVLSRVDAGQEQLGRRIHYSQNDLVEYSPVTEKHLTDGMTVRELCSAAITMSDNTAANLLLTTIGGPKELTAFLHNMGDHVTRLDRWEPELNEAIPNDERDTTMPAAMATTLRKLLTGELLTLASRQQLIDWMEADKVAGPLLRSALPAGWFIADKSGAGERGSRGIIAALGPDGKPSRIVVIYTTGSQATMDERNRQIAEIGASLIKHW", "assay": "β-lactamase colorimetry assay (TEM-1 inhibition)", "assay_type": "biochemical, E. coli", "settings": "for TEM-1 inhibition compared with T61-25: β-lactamase colorimetry assay", "excerpt": "The bacteria can express a β-lactamase and the antibacterial peptide can inhibit the ability of the β-lactamase to cleave a β-lactam ring. This can be measured using a beta lactamase inhibition assay like a commercially available beta lactamase inhibitor screening kit. These kits test the ability of a beta lactamase to hydrolyze a chromogenic substrate, which results in the generation of a colored product. The amount of color produced is directly proportional to the amount of beta-lactamase activity. In the presence of beta lactamase inhibitors, such as clavulanic acid or the antibacterial peptides described herein, the rate of substrate hydrolysis will decrease resulting in a decrease in the production of colored analyte. The non-peptide β-lactamase inhibitor can include clavulanate, clavulanic acid, sulbactam, taobactam, avibactam, relebacam, RG6080, or RPX7009."}, "[1]": {"settings": "25% human serum, 0 hours and 24 hours (FIG. 1)"}, "PBP2a": {"target": "PBP2a (Staphylococcus aureus, UniProt P07944)", "sequence (P07944 whole entry)": "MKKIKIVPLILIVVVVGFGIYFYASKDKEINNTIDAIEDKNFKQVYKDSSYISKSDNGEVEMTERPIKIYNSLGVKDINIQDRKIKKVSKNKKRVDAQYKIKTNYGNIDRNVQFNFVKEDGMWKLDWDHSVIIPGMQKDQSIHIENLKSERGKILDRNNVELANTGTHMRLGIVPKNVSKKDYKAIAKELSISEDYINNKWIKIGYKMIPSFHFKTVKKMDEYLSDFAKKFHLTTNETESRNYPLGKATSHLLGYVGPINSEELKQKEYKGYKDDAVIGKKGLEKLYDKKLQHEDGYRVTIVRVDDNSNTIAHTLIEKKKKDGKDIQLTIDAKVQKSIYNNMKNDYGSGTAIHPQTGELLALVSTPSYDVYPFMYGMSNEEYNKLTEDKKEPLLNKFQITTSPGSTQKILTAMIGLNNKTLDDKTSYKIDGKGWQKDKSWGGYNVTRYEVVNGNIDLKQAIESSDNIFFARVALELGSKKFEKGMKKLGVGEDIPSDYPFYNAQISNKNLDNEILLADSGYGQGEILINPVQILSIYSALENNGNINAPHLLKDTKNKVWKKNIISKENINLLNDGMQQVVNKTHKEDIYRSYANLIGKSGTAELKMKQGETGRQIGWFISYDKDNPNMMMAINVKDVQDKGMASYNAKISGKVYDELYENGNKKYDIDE", "assay": "PBP2a colorimetry assay", "assay_type": "biochemical", "excerpt": "Methicillin-resistant Staphylococcus aureus (MRSA) contains the mecA gene in a mobile genetic element found in all MRSA strains, which encodes penicillin-binding protein 2a (PBP2a). PBPs are membrane-bound enzymes that catalyze the transpeptidation reaction that is necessary for cross-linkage of peptidoglycan chains for cell wall formation and targeted by β-lactam. Because of the low affinity of PBP2a for all β-lactam antibiotics, it can substitute for other PBPs under high concentrations of f-lactam antibiotics. As a result. MRSA strains are highly resistant to β-lactam antibiotics."}, "SAP231": {"test_system": "SAP231", "assay": "Enhancement of cefazolin killing of MRSA", "assay_type": "cell-based, Staphylococcus aureus", "settings": "at the test concentrations, 0 μg/ml peptide", "method": "FIGS. 4A and 4B are graphs showing RI-D-BP100-T61-25 combined with cefazolin and tested against both SAP231 (FIG. 4A) and NRS384 strain (FIG. 4B).\nAdditionally, the peptide's potency at enhancing cefazolin killing of MRSA was also tested. Cefazolin is a cephalosporin, which are improved β-lactams developed to overcome some of the early penicillin resistance. Cefazolin is a first line therapy for the treatment of Methicillin-susceptible Staphylococcus aureus (MSSA) infections. […] RI-D-BP100-T61-25 was also combined with cefazolin and tested against both SAP231 (FIG. 4A) and NRS384 strain (FIG. 4B)."}}, "note": "Square brackets hold non-standard residues; d marks the D form. Peptide text beside a SMILES is read from it.", "data": [{"smiles": "CC(C)C[C@@H](NC(=O)[C@@H](C)NC(=O)[C@@H](CCC(N)=O)NC(=O)[C@@H](C)NC(=O)[C@@H](C)NC(=O)[C@@H](C)NC(=O)[C@H](NC(=O)CN)[C@H](C)O)C(=O)N[C@H](Cc1ccc(O)cc1)C(=O)N[C@@H](C(=O)N[C@H](CCCCN)C(=O)O)[C@H](C)O", "note": "[RI-D-T61-25, dGdTdAdAdAdQdAdLdYdTdK]", "values": [{"measurement": "Ki", "setting": "TEM-1 β-lactamase", "value": "880 ± 40", "unit": "nM"}, {"measurement": "TEM-1 inhibition compared with T61-25", "setting": "TEM-1 β-lactamase", "value": "maintained comparable levels of TEM-1 inhibition as T61-25"}]}, {"smiles": "CC[C@@H](C)[C@@H](NC(=O)[C@@H](CC(C)C)NC(=O)[C@@H](CCCCN)NC(=O)[C@@H](Cc1ccc(O)cc1)NC(=O)[C@@H](CC(C)C)NC(=O)[C@@H](CCCCN)NC(=O)[C@H](NC(=O)[C@@H](Cc1ccc(O)cc1)NC(=O)[C@@H](CC(C)C)NC(=O)[C@@H](C)NC(=O)[C@@H](CCC(N)=O)NC(=O)[C@@H](C)NC(=O)[C@@H](C)NC(=O)[C@@H](C)NC(=O)[C@H](NC(=O)CN)[C@H](C)O)[C@H](C)O)C(=O)N[C@H](CCCCN)C(=O)N[C@H](CCCCN)C(=O)N[C@H](Cc1ccccc1)C(=O)N[C@H](CC(C)C)C(=O)N[C@H](CCCCN)C(=O)N[C@H](CCCCN)C(=O)O", "note": "[RI-D-BP100-T61-25, dGdTdAdAdAdQdAdLdYdTdKdLdYdKdLdIdKdKdFdLdKdK] (H-G[dT][dA][dA][dA][dQ][dA][dL][dY][dT][dK][dL][dY][dK][dL][dI][dK][dK][dF][dL][dK][dK]-OH; N-terminus and C-terminus assumed)", "values": [{"measurement": "serum stability", "setting": "[1]", "value": "better than the L-peptide BP100-T61-25"}]}, {"smiles": "CC(C)C[C@H](NC(=O)[C@H](Cc1ccc(O)cc1)NC(=O)[C@@H](NC(=O)[C@@H](N)CCCCN)[C@@H](C)O)C(=O)N[C@@H](C)C(=O)N[C@@H](CCC(N)=O)C(=O)N[C@@H](C)C(=O)N[C@@H](C)C(=O)N[C@@H](C)C(=O)N[C@H](C(=O)NCC(=O)O)[C@@H](C)O", "note": "[Inhibitor T61-25]", "values": [{"measurement": "inhibition of PBP2a activity", "setting": "PBP2a", "value": "capable of inhibiting PBP2a activity at μM range"}]}, {"smiles": "CC(C)C[C@H](NC(=O)[C@H](Cc1ccc(O)cc1)NC(=O)[C@H](NC(=O)[C@@H](N)CCCCN)[C@H](C)O)C(=O)N[C@@H](C)C(=O)N[C@@H](CCC(N)=O)C(=O)N[C@@H](C)C(=O)N[C@@H](C)C(=O)N[C@@H](C)C(=O)N[C@H](C(=O)NCC(=O)O)[C@@H](C)O", "note": "[D-T2]", "values": [{"measurement": "TEM-1 inhibition compared with T61-25", "setting": "TEM-1 β-lactamase", "value": "maintained comparable levels of TEM-1 inhibition as T61-25"}]}, {"smiles": "CC(C)C[C@@H](NC(=O)[C@@H](Cc1ccc(O)cc1)NC(=O)[C@H](NC(=O)[C@H](N)CCCCN)[C@H](C)O)C(=O)N[C@H](C)C(=O)N[C@H](CCC(N)=O)C(=O)N[C@H](C)C(=O)N[C@H](C)C(=O)N[C@H](C)C(=O)N[C@@H](C(=O)NCC(=O)O)[C@H](C)O", "note": "[D-T61-25]", "values": [{"measurement": "TEM-1 inhibition compared with T61-25", "setting": "TEM-1 β-lactamase", "value": "maintained comparable levels of TEM-1 inhibition as T61-25"}]}, {"smiles": "Cc1nnc(SCC2=C(C(=O)O)N3C(=O)[C@@H](NC(=O)Cn4cnnn4)[C@H]3SC2)s1", "note": "[cefazolin, Cefazolin]", "values": [{"measurement": "inhibition of SAP231 growth by cefazolin alone", "setting": "SAP231", "value": "partially inhibited"}]}]}
